Consider one compound from patent US20080293699A1, “Inhibitors of thapsigargin-induced cell death” (priority 2007, published 2008).

pIC50: −log10 of the molar value. Entries after “also recorded” stand apart in the source; their conditions may differ.

Experiment [1] has as its system PC12 rat pheochromocytoma cells. As to the kind of experiment: Thapsigargin-induced death of PC12 cells (undifferentiated and differentiated), ATP content assay. Format: cell-based. Further details: key to Cytoprotective activity, PC12 (Result): +indicates >50% rescue of cell viability relative to untreated cells not exposed to thapsigargin at compound concentration of ≦25 μM; E indicates compound enhanced thapsigargin-induced death. How it is done: (§1) In addition to CSM14.1 cells, when tested at 25 μM, Compound 5962123 protected by >50% against thapsigargin-induced death of several tumor cell lines (HeLa human cervical cancer, SW1 melanoma cell, PPC1, human prostate cancer), mouse neural stem cell C17.2 (both differentiated [neuronal phenotype] and non-differentiated [stem cell phenotype]) as determined by ATP content assay, and primary rat cortical neurons as determined by microscopy assay measuring the percentage of NeuN-immunopositive cells with either normal or apoptotic nuclear morphology (Hoechst dye staining).
(§2) For PC12, cells were stimulated with 20 ng/ml NGF for five days; for C17.2, cells were stimulated with serum reduction, and 1% N2 incubation for three days; for CSM14.1, cells were cultured at 39° C. for 5-7 days.

The test system of another experiment is CSM14.1 cells. Briefly: Tunicamycin-induced cell death of CSM14.1 cells. Format: cell-based, rat. How it is done: CSM 14.1 cells were plated at a density of 3×10^3 cells/well in 96-well plates and incubated overnight. Cells were pre-incubated with 25 μM of each compound or 100 μM salubrinal for two hours, followed by […] tunicamycin treatment. 72 hours later, cell death rates were measured by flow cytometry analysis. Annexin V-negative population was considered as survivors. In FIG. 13, the white column represents 0.5% DMSO control showing 24% of survival, and the gray column 100 μM salubrinal. Black columns are data from each compound (25 μM) (compound numbers refer to the compounds in Table 9).
For the experiments shown in FIG. 18, undifferentiated CSM 14.1 cells were plated at 3,000 cells per well in 96-well plates (for the ATP assay) or at 1×10^4 cells per well in 24-well plates (for flow cytometry). The next day, cells were treated with DMSO (0.5%) or hit compounds 25 μM of a compound with 0.5% DMSO final concentration) for two hours, followed by treatment with various cell death-inducing reagents, including 15 μM Thapsigargin (TG) for 24 hrs, 10 μg/mL tunicamycin (TU) for 72 hrs, 2.5 μM staurosporine (STS) for 24 hrs, 50 μM VP16 for 48 hrs, or 30 ng/mL TNF plus 10 μg/mL cyclohexamide (CHX) for 24 hrs. Cellular ATP content was measured for staurosporine samples and TNF/CHX samples, normalizing data relative to cells treated with DMSO alone (the control) and presenting as a percentage of control. For measuring cell death resulting from treatment with tunicamycin and VP16, flow cytometry was used. All assays were performed in triplicate (mean ±SD).

For experiment [2], the system named is PPC1, human prostate cancer. Briefly: Thapsigargin-induced death of PPC1 cells, ATP content assay. Type of experiment: cell-based. How it is done: as §1, §2
Another experiment concerns phospho-eIF2α. Briefly: Immunoblotting of eIF2α phosphorylation in thapsigargin-treated CSM14.1 cells. Format: cell-based, rat. The note with it: thapsigargin-stimulated CSM14.1, listed as CID-2878746. The source says:
(§3) After confirming the pathway selectivity of compounds, additional downstream assays can be performed to map the specific signal transduction pathway inhibited by the compounds. In this regard, various antibody reagents are commercially available for assessing the status of the three major pathways known to be activated by ER stress: (1) PERK, (2) Ire1, and (3) ATF6 (Xu et al., J. Clinical Invest., 115:2656-2664, 2005). Immunoblotting experiments can be performed to assess the expression or phosphorylation (using phospho-specific antibodies) of marker proteins in these pathways. […] Cell lysates were prepared and analyzed by SDS-PAGE/immunoblotting using antibodies specific for phospho-c-Jun, phospho-eIF2α, phospho-p38 MAPK, and tubulin (a loading control). […] After two hrs, cell lysates were prepared, normalized for protein content, and either analyzed by SDS-PAGE/immunoblotting using anti-p38-MAPK pan-reactive antibody or phospho-specific antibody with ECL-based detection, followed by densitometry analysis of x-ray films, normalizing phosphor-p38 MAPK relative to total p38 MAPK, or analyzed using a meso-scale instrument from MSD and a procedure in which total p38 MAPK is captured on plates, and the relative amounts of phosphorylated protein were determined using phospho-specific antibody (MSD catalog #K15112D1). […]

The test system of experiment [3] is protein phosphatase 2B (Calcineurin). As to the kind of experiment: In vitro phosphatase assay with immunoprecipitated ASK1 (ser 967 site) as substrate. Type of experiment: biochemical. The note with it: 100 μM.
The test system of a further experiment is ATF4. As to the kind of experiment: Thapsigargin-induced expression of ATF4 (immunoblotting). Type of experiment: cell-based, rat. As to conditions: listed as CID-2878746.
For a further experiment, the system named is ATF6. As to the kind of experiment: ATF6 proteolytic processing (immunoblotting). Type of experiment: cell-based, rat. The note with it: immunoblotting to detect cleaved form; listed as CID-2878746.
From the text: as §3
A general note: In western blotting, separated proteins are transferred to a membrane and probed.

Consider `CCN(CC)c1ccc(C2Nc3ccccc3NC3=C2C(=O)CC(c2ccccc2)C3)cc1` (stereo not shown) [Compound 5962123, 6-(4-diethylaminophenyl)-9-phenyl-5,6,8,9,10,11-hexahydrobenzo[c][1,5]benzodiazepin-7-one], for which, in experiment [1] (25 μM, undifferentiated or differentiated as stated, ATP content assay), the “Protection of PC12 cells from thapsigargin-induced cell death” value was “does not protect”. The “Effect on thapsigargin-treated undifferentiated PC12 cells” value in experiment [1] (undifferentiated PC12) is recorded as “paradoxical cell death-promoting activity”. In addition, in experiment [1] (undifferentiated, thapsigargin 15 μM, ATP content, compound ≦25 μM), the “Cytoprotective activity, PC12 (Result)” value is “E”. In the experiment with CSM14.1 cells (CSM14.1 cells, annexin V flow cytometry where stated), the “Inhibition of tunicamycin-induced cell death” value is on record as “inhibits; also recorded: confirmed”. In the experiment on CSM14.1 cells (readout Annexin, CSM 14.1, compound ≦25 μM), the “Cytoprotective activity, stimulus Tunicamycin (Result)” value is given as “+ (+indicates ≧50% rescue of cell viability relative to untreated cells not exposed to thapsigargin at compound concentration of ≦25 μM)”. Besides, the negative-log IC50 (pIC50) (in general, the negative decadic logarithm of the IC50, by convention in mol/L) in the experiment on CSM14.1 cells (undifferentiated CSM14.1, ATP content assay, read-out: IC50, inhibition of tunicamycin-induced cell death) was 5.00. The “Protection against thapsigargin-induced death, PPC1” value in experiment [2] (25 μM, ATP content assay) is reported as over 50%. Also, the “Cytoprotective activity in thapsigargin-treated PPC-1” value in experiment [2] (ATP content assay) is “demonstrated”. The “Cytoprotective activity, PPC1 (Result)” value in experiment [2] (thapsigargin 15 μM, ATP content, compound ≦25 μM) was “+ (+indicates >50% rescue of cell viability relative to untreated cells not exposed to thapsigargin at compound concentration of ≦25 μM)”. Also, in the experiment with phospho-eIF2α, the “Phosphorylation of eIF2alpha (Ser 51)” value was “not inhibited”. In experiment [3], the “Activity of protein phosphatase 2B (Calcineurin)” value was “did not affect”. For the same compound, in the experiment on ATF4, the “Thapsigargin-induced expression of ATF4” value is listed as “not inhibited”. In addition, the “ATF6 proteolytic processing” value in the experiment with ATF6 was “not inhibited”.
